Tested on: Plasmopara viticola
Experiment: activity against peronospora of grapevines caused by Plasmopara viticola (protective spray treatment of potted vines)
Assay type: in vivo, Plasmopara viticola on grapevines
Details: individual active compound, Abbot's formula, untreated control 92% infection
Description: The active compounds, separately or jointly, were prepared as a stock solution comprising 0.25% by weight of active compound in acetone or DMSO. 1% by weight of the emulsifier Uniperol® EL (wetting agent having emulsifying and dispersant action based on ethoxylated alkylphenols) was added to this solution, and the mixture was diluted with water to the desired concentration.
Use example—activity against peronospora of gravevines caused by Plasmopara viticola
Leaves of potted vines were sprayed to runoff point with an aqueous suspension having the concentration of active compound stated below. The next day, the undersides of the leaves were inoculated with an aqueous sproangal suspension of Plasmopara viticola. The grapevines were then initially placed in a water-vapor-saturated chamber at 24° C. for 48 hours and then in a greenhouse at 20-30° C. for 5 days. After this period of time, the plants were again placed in a humid chamber for 16 hours to promote sporangiophore eruption. The extent of the development of the disease on the undersides of the leaves was then determined visually.
The visually determined percentages of infected leaf areas were converted into efficacies in % of the untreated control:
The efficacy (E) is calculated as follows using Abbot's formula: E=(1−α/β)·100 • α corresponds to the fungicidal infection of the treated plants in % and • β corresponds to the fungicidal infection of the untreated (control) plants in %
An efficacy of 0 means that the infection level of the treated plants corresponds to that of the untreated control plants; an efficacy of 100 means that the treated plants were not infected.
The expected efficacies of mixtures of active compounds were determined using Colby's formula (Colby, S. R. “Calculating synergistic and antagonistic responses of herbicide combinations”, Weeds, 15, 20-22, 1967) and compared with the observed efficacies.
Colby's formula: E=x+y−x·y/100 • E expected efficacy, expressed in % of the untreated control, when using the mixture of the active compounds A and B at the concentrations a and b • x efficacy, expressed in % of the untreated control, when using the active compound A at the concentration a
y efficacy, expressed in % of the untreated control, when using the active compound B at the concentration b

Row | Molecule | Efficacy in % of the untreated control (4 ppm in the spray liquor) [%] | Efficacy in % of the untreated control (16 ppm in the spray liquor) [%] | Efficacy in % of the untreated control (63 ppm in the spray liquor) [%]
1 | 2,6-dinitro-4-octylphenyl crotonate und 2,4-dinitro-6-octylphenyl crotonate [II] | 2 | 2 | 2
2 | CC1CCN(c2c(-c3c(F)cc(F)cc3F)c(Cl)nc3ncnn23)CC1 [I, 5-chloro-7-(4-methylpiperidin-1-yl)-6-(2,4,6-trifluorophenyl)-[1,2,4]triazolo[1,5-a]pyrimidine] | – | 56 | –

From patent publication US20070117814A1, “Fungicidal mixtures” (Basf Aktiengesellschaft, priority 2003, published 2007)
